# The source made the active and inactive calls. The rule behind the calls is not given here.
# Legend:
# [1] = Displacement of [125I]Tyr11-somatostatin-14 from Sst receptor in mouse AtT-20 cells measured after 60 mins by scintillation counting method; type: cell-based; settings: att20
# [2] = Displacement of [3H]batrachotoxinin from rat cerebral cortex sodium channel site 2 measured after 60 mins by scintillation counting method
# Mus musculus [3] = experiment: Anticonvulsant activity in maximal electroshock induced seizure mouse model assessed as suppression in hindlimb tonic extension at 30 mg/kg, ip measured at 4 hrs post dose; type: functional, organism-based
# Rattus norvegicus [4] = experiment: Neurotoxicity in Sprague-Dawley rat assessed as behavioral change at 30 mg/kg, ip measured at […] post dose; type: toxicity, organism-based; settings: in vivo
# Rattus norvegicus [5] = experiment: Neurotoxicity in Sprague-Dawley rat assessed as behavioral change at 30 mg/kg, ip measured at 1 hr post dose; type: toxicity, organism-based; settings: in vivo
# Mus musculus [6] = experiment: Neurotoxicity in mouse assessed as induction of motor impairment at 30 mg/kg, ip measured at 0.5 hrs post dose by rotarod method; type: toxicity, organism-based; settings: in vivo
# Mus musculus [7] = experiment: Neurotoxicity in ip dosed mouse assessed as induction of motor impairment by measuring time to peak effect by rotarod method; type: toxicity, organism-based; settings: in vivo
# Rattus norvegicus [8] = experiment: Neurotoxicity in Sprague-Dawley rat assessed as behavioral change at 30 mg/kg, po measured at 4 hrs post dose; type: toxicity, organism-based; settings: in vivo
# Rattus norvegicus [9] = experiment: Neurotoxicity in Sprague-Dawley rat assessed as behavioral change at 30 mg/kg, ip measured at 4 hrs post dose; type: toxicity, organism-based; settings: in vivo
# Mus musculus [10] = experiment: Anticonvulsant activity in 6-Hz induced seizure mouse model assessed as restoration of normal activity within 10 secs from stimulation at 100 mg/kg, ip at 32 mA measured at 4 hrs post dose; type: functional, organism-based
# Mus musculus [11] = experiment: Anticonvulsant activity in ip dosed maximal electroshock induced seizure mouse model assessed as suppression in hindlimb tonic extension; type: functional
# Rattus norvegicus [12] = experiment: Neurotoxicity in Sprague-Dawley rat assessed as behavioral change at 30 mg/kg, po measured at […] post dose; type: toxicity, organism-based; settings: in vivo
# Rattus norvegicus [13] = experiment: Neurotoxicity in Sprague-Dawley rat assessed as behavioral change at 30 mg/kg, po measured at 1 hr post dose; type: toxicity, organism-based; settings: in vivo
# Rattus norvegicus [14] = experiment: Neurotoxicity in Sprague-Dawley rat assessed as behavioral change at 30 mg/kg, ip measured at 2 hrs post dose; type: toxicity, organism-based; settings: in vivo
# Mus musculus [15] = experiment: Anticonvulsant activity in maximal electroshock induced seizure mouse model assessed as suppression in hindlimb tonic extension at 300 mg/kg, ip measured at 4 hrs post dose; type: functional, organism-based
# Rattus norvegicus [16] = experiment: Neurotoxicity in Sprague-Dawley rat assessed as behavioral change at 30 mg/kg, po measured at 0.5 hrs post dose; type: toxicity, organism-based; settings: in vivo
# Mus musculus [17] = experiment: Anticonvulsant activity in ip dosed pentylenetetrazole induced seizure mouse model assessed as no observable episode of clonic convulsion of at least 5 secs; type: functional
# [18] = Neurotoxicity in ip dosed mouse; type: toxicity, organism-based; settings: in vivo
# Rattus norvegicus [19] = experiment: Neurotoxicity in Sprague-Dawley rat assessed as behavioral change at 30 mg/kg, ip measured at 0.5 hrs post dose; type: toxicity, organism-based; settings: in vivo
# [20] = Protection index, ratio of TD50 for neurotoxicity in ip dosed mouse to ED50 for ip dosed pentylenetetrazole induced seizure mouse model; type: toxicity, organism-based; settings: in vivo, read-out: Ratio TD50/ED50
# Mus musculus [21] = experiment: Anticonvulsant activity in ip dosed maximal electroshock induced seizure mouse model assessed as suppression in hindlimb tonic extension by measuring time to peak effect; type: functional
# Mus musculus [22] = experiment: Anticonvulsant activity in maximal electroshock induced seizure mouse model assessed as suppression in hindlimb tonic extension at 100 mg/kg, ip measured at 4 hrs post dose; type: functional, organism-based
# Mus musculus [23] = experiment: Neurotoxicity in mouse assessed as induction of motor impairment at 300 mg/kg, ip measured at 4 hrs post dose by rotarod method; type: toxicity, organism-based; settings: in vivo
# Mus musculus [24] = experiment: Anticonvulsant activity in ip dosed pentylenetetrazole induced seizure mouse model assessed as no observable episode of clonic convulsion of at least 5 secs by measuring time to peak effect; type: functional
# Rattus norvegicus [25] = experiment: Anticonvulsant activity in maximal electroshock induced seizure Sprague-Dawley rat model assessed as suppression in hindlimb tonic extension at 30 mg/kg, po measured at 2 hrs post dose; type: functional, organism-based
# Rattus norvegicus [26] = experiment: Neurotoxicity in Sprague-Dawley rat assessed as behavioral change at 30 mg/kg, po measured at 2 hrs post dose; type: toxicity, organism-based; settings: in vivo
# Mus musculus [27] = experiment: Neurotoxicity in mouse assessed as induction of motor impairment at 30 mg/kg, ip measured at 4 hrs post dose by rotarod method; type: toxicity, organism-based; settings: in vivo
# [28] = Protection index, ratio of TD50 for neurotoxicity in ip dosed mouse to ED50 for ip dosed maximal electroshock induced seizure mouse model; type: toxicity, organism-based; settings: in vivo, read-out: Ratio TD50/ED50
# [29] = molecular target: Vasoactive intestinal polypeptide receptor 1 (Homo sapiens, UniProt P32241); experiment: Displacement of [125I]VIP from human recombinant VPAC1 receptor expressed in CHO cells measured after 60 mins by scintillation counting method; type: cell-based
# Mus musculus [30] = experiment: Anticonvulsant activity in maximal electroshock induced seizure mouse model assessed as suppression in hindlimb tonic extension at 300 mg/kg, ip measured at 0.5 hrs post dose; type: functional, organism-based
# Mus musculus [31] = experiment: Anticonvulsant activity in pentylenetetrazole induced seizure mouse model assessed as no observable episode of clonic convulsion of at least 5 secs at 300 mg/kg, ip measured at 4 hrs post dose; type: functional, organism-based
# Mus musculus [32] = experiment: Anticonvulsant activity in pentylenetetrazole induced seizure mouse model assessed as no observable episode of clonic convulsion of at least 5 secs at 300 mg/kg, ip measured at 0.5 hrs post dose; type: functional, organism-based
# Mus musculus [33] = experiment: Neurotoxicity in mouse assessed as induction of motor impairment at 100 mg/kg, ip measured at 4 hrs post dose by rotarod method; type: toxicity, organism-based; settings: in vivo
# Mus musculus [34] = experiment: Anticonvulsant activity in pentylenetetrazole induced seizure mouse model assessed as no observable episode of clonic convulsion of at least 5 secs at 100 mg/kg, ip measured at 0.5 hrs post dose; type: functional, organism-based
# Mus musculus [35] = experiment: Neurotoxicity in mouse assessed as induction of motor impairment at 300 mg/kg, ip measured at 0.5 hrs post dose by rotarod method; type: toxicity, organism-based; settings: in vivo
# [36] = Displacement of [3H]a,b-MeATP from rat urinary bladder P2X receptor measured after 120 mins by scintillation counting method
# [37] = Displacement of [35S]dATPaS from rat cerebral cortex P2Y receptor measured after 60 mins by scintillation counting method
# [38] = Displacement of [3H]D888 from rat cerebral cortex calcium channel L type verapamil binding site measured after 120 mins by scintillation counting method
# Rattus norvegicus [39] = experiment: Anticonvulsant activity in po dosed pentylenetetrazole induced seizure Sprague-Dawley rat model assessed as no observable episode of clonic convulsion of at least 5 secs; type: functional
# Mus musculus [40] = experiment: Anticonvulsant activity in ip dosed pentylenetetrazole induced seizure mouse model; type: functional
# Mus musculus [41] = experiment: Anticonvulsant activity in ip dosed 6-Hz induced seizure mouse model assessed as restoration of normal activity within 10 secs from stimulation at 32 mA; type: functional
# Rattus norvegicus [42] = experiment: Anticonvulsant activity in po dosed pentylenetetrazole induced seizure rat model; type: functional
# Mus musculus [43] = experiment: Anticonvulsant activity in ip dosed 6-Hz induced seizure mouse model assessed as restoration of normal activity within 10 secs from stimulation at 44 mA; type: functional
# [44] = Displacement of [3H]TCP from rat cerebral cortex phencyclidine receptor measured after 120 mins by scintillation counting method
# Mus musculus [45] = experiment: Anticonvulsant activity in maximal electroshock induced seizure mouse model assessed as suppression in hindlimb tonic extension at 100 mg/kg, ip measured at 0.5 hrs post dose; type: functional, organism-based
# Mus musculus [46] = experiment: Anticonvulsant activity in 6-Hz induced seizure mouse model assessed as restoration of normal activity within 10 secs from stimulation at 100 mg/kg, ip at 32 mA measured at 0.5 hrs post dose; type: functional, organism-based
# Mus musculus [47] = experiment: Anticonvulsant activity in maximal electroshock induced seizure mouse model assessed as suppression in hindlimb tonic extension at 30 mg/kg, ip measured at 0.5 hrs post dose; type: functional, organism-based
# Rattus norvegicus [48] = experiment: Anticonvulsant activity in maximal electroshock induced seizure Sprague-Dawley rat model assessed as suppression in hindlimb tonic extension at 30 mg/kg, ip measured at […] post dose; type: functional, organism-based
# Mus musculus [49] = experiment: Anticonvulsant activity in 6-Hz induced seizure mouse model assessed as restoration of normal activity within 10 secs from stimulation at 100 mg/kg, ip at 32 mA measured at […] post dose; type: functional, organism-based
# [50] = Displacement of [35S]TBPS from rat cerebral cortex GABA-gated chloride channel measured after 60 mins by scintillation counting method
# Sequence of Vasoactive intestinal polypeptide receptor 1 (P32241 whole entry): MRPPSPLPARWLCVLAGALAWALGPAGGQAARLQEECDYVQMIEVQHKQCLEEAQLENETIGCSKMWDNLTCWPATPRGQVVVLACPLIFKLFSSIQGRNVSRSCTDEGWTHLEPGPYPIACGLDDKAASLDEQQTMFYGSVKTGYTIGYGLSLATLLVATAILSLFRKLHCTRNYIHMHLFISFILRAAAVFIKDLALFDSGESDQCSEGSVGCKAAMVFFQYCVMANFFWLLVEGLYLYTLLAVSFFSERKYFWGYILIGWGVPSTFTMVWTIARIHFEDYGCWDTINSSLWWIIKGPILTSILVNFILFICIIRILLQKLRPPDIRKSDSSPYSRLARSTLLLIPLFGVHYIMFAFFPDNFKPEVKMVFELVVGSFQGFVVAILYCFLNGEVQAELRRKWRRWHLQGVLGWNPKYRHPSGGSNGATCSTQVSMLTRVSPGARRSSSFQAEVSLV
compound,measurement,setting,value
C[C@H](N)C(=O)NCC(=O)N[C@H]1CSSC[C@@H](C(=O)O)NC(=O)[C@H](CO)NC(=O)[C@H]([C@@H](C)O)NC(=O)[C@H](Cc2ccccc2)NC(=O)[C@H]([C@@H](C)O)NC(=O)[C@H](CCCCN)NC(=O)[C@H](Cc2c[nH]c3ccccc23)NC(=O)[C@H](Cc2ccccc2)NC(=O)[C@H](Cc2ccccc2)NC(=O)[C@H](CC(N)=O)NC(=O)[C@H](CCCCN)NC1=O [SOMATOSTATIN],IC50,[1],0.074 nM
COc1ccc(C(=O)O[C@H]2CC[C@@]3(C)[C@H]4CC[C@H]5[C@]6(O)C[C@H](O)[C@@]7(O)[C@@H](CN8C[C@@H](C)CC[C@H]8[C@@]7(C)O)[C@]6(O)C[C@@]53O[C@@]24O)cc1OC,IC50,[2],4000 nM
O=C(/C=C/c1ccc(Cl)cc1)N[C@H]1CC[C@H](O)CC1,Activity,Mus musculus [3],Active
same,Activity,Rattus norvegicus [4],Non-Toxic
same,Activity,Rattus norvegicus [5],Non-Toxic
same,Activity,Mus musculus [6],Non-Toxic
same,Time,Mus musculus [7],6 h
same,Activity,Rattus norvegicus [8],Non-Toxic
same,Activity,Rattus norvegicus [9],Non-Toxic
same,Activity,Mus musculus [10],Active
same,ED50,Mus musculus [11],186 mg/kg
same,Activity,Rattus norvegicus [12],Non-Toxic
same,Activity,Rattus norvegicus [13],Non-Toxic
same,Activity,Rattus norvegicus [14],Non-Toxic
same,Activity,Mus musculus [15],Active
same,Activity,Rattus norvegicus [16],Non-Toxic
same,ED50,Mus musculus [17],317 mg/kg
same,TD50,[18],> 600 mg/kg
same,Activity,Rattus norvegicus [19],Non-Toxic
same,selectivity ratio,[20],> 1.9
same,Time,Mus musculus [21],2 h
same,Activity,Mus musculus [22],Active
same,Activity,Mus musculus [23],Non-Toxic
same,Time,Mus musculus [24],2 h
same,Activity,Rattus norvegicus [25],Active
same,Activity,Rattus norvegicus [26],Non-Toxic
same,Activity,Mus musculus [27],Non-Toxic
same,selectivity ratio,[28],> 3.22
H-HSDAVFTDNYTRLRKQLAVKKYLNSILN-NH2,IC50,[29],0.11 nM
CCC(O)CNC(=O)/C=C/c1ccc(Cl)cc1 (stereo unspecified),Activity,Mus musculus [30],Active
same,Activity,Mus musculus [31],Active
same,Activity,Mus musculus [6],Non-Toxic
same,Activity,Mus musculus [32],Active
same,Activity,Mus musculus [15],Active
same,Activity,Mus musculus [33],Non-Toxic
same,Activity,Mus musculus [34],Active
same,Activity,Mus musculus [35],Toxic
same,Activity,Mus musculus [23],Toxic
same,Activity,Mus musculus [27],Non-Toxic
Nc1ncnc2c1ncn2[C@@H]1O[C@H](COP(=O)(O)CP(=O)(O)OP(=O)(O)O)[C@@H](O)[C@H]1O [DIPHOSPHOMETHYLPHOSPHONIC ACID ADENOSYL ESTER],IC50,[36],1.9 nM
Nc1ncnc2c1ncn2[C@H]1C[C@H](O)[C@@H](COP(O)(=S)OP(=O)(O)OP(=O)(O)O)O1 (stereo partly specified),IC50,[37],29 nM
COc1ccc(CCN(C)CCCC(C#N)(c2cc(OC)c(OC)c(OC)c2)C(C)C)cc1OC (stereo unspecified) [GALLOPAMIL],IC50,[38],15 nM
NC(=O)N1c2ccccc2C=Cc2ccccc21 [CARBAMAZEPINE],ED50,Rattus norvegicus [39],> 250 mg/kg
same,ED50,Mus musculus [40],> 50 mg/kg
same,ED50,Mus musculus [41],47.9 mg/kg
CCCC(CCC)C(=O)O [VALPROIC ACID],ED50,Rattus norvegicus [42],646 mg/kg
same,ED50,Mus musculus [43],310 mg/kg
same,ED50,Mus musculus [40],220 mg/kg
C[C@]12N[C@H](Cc3ccccc31)c1ccccc12 [DIZOCILPINE],IC50,[44],4.6 nM
CCC(O)CNC(=O)/C=C/c1ccccc1C (stereo unspecified),Activity,Rattus norvegicus [4],Non-Toxic
same,Activity,Rattus norvegicus [5],Non-Toxic
same,Activity,Mus musculus [30],Active
same,Activity,Mus musculus [45],Active
same,Activity,Mus musculus [46],Active
same,Activity,Rattus norvegicus [8],Non-Toxic
same,Activity,Rattus norvegicus [9],Non-Toxic
same,Activity,Mus musculus [32],Active
same,Activity,Rattus norvegicus [12],Non-Toxic
same,Activity,Rattus norvegicus [13],Non-Toxic
same,Activity,Rattus norvegicus [14],Non-Toxic
same,Activity,Rattus norvegicus [16],Non-Toxic
same,Activity,Mus musculus [47],Active
same,Activity,Mus musculus [33],Non-Toxic
same,Activity,Rattus norvegicus [19],Non-Toxic
same,Activity,Mus musculus [35],Toxic
same,Activity,Rattus norvegicus [48],Active
same,Activity,Mus musculus [49],Active
same,Activity,Mus musculus [23],Non-Toxic
same,Activity,Rattus norvegicus [26],Non-Toxic
same,Activity,Mus musculus [27],Non-Toxic
C=C(C)[C@@H]1[C@H]2OC(=O)[C@@H]1[C@]1(O)C[C@H]3O[C@]34C(=O)O[C@H]2[C@]14C [PICROTOXININ],IC50,[50],77 nM

# From ChEMBL document CHEMBL3875185, “Structure-anticonvulsant activity studies in the group of (E)-N-cinnamoyl aminoalkanols derivatives monosubstituted in phenyl ring with 4-Cl, 4-CH3 or 2-CH3” (Bioorg Med Chem, 2017)
